Laboratory results: patent US8017727B2, “Conjugates of membrane translocating agents and pharmaceutically active agents” (Merrion Research III Limited, priority 1999, dated 2011)

What was measured:
[1] = tested on: Caco-2 cell monolayers; test: Permeability of tritiated kappa peptide conjugates through differentiated Caco-2 cell monolayers; format: in vitro ADME, human; settings: n=5
Procedure: Highest transport values were obtained in the first 30 min followed by a 2-4 fold decrease at 60 min. The significance of these findings is unclear. The data may be indicative of dual binding/uptake events occurring through i) a kappa receptor specific mechanism and ii) direct membrane interaction through lipid interaction of the membrane permeable peptide.

[2] = Systemic 3H bioavailability of kappa peptide conjugates, conscious rat model (plasma); format: in vivo, Wistar rats; settings: intraduodenal (ID), 100 μCi
Procedure: The possible enhancing effects of ELAN094 and ELAN207 MTLPs (SEQ ID NOs 2 and 60) on intestinal absorption of the kappa peptide were examined in a conscious rat model.
The study was non-randomised, parallel group design. Wistar rats within the 250-350 g weight range were used. All animals were fasted for a period of 16 h prior to study initiation. Water was available at all times.
Intravenous injection of 10 μCi of ^3H-kappa peptide-Kaffiralin-1 (plain kappa peptide) (tail vein injection).
Intraduodenal instillation of 100 μCi of ^3H-kappa peptide-Elan094 (Analysed). The Elan094 ligand contains a membrane translocating sequence.
Intraduodenal instillation of 100 μCi of ^3H-kappa peptide-Elan207 (Analysed). The Elan207 ligand contains a membrane translocating sequence.
Intraduodenal instillation of 100 μCi of ^3H-kappa peptide-Kaffiralin-1.
The plasma (100-250 μl) was made up to 1 ml with BTS-450 (an organic tissue solubiliser) and incubated for 1 hour. Ten ml of Scintillation fluid was added and the radioactivity was measured.
The study was a non-randomised, parallel group biostudy designed to evaluate the systemic bioavailability of tritium labelled kappa peptide conjugates after intra-duodenal instillation in the conscious rat model. Each rat only received one treatment and the plasma samples were analysed for tritium content. The calculation of AUClast, Amax, tmax, Volume of Distribution (V d) and Clearance was based on base line corrected data. The absolute bioavailability was calculated using potency corrected data.

[3] = 3H tissue distribution of kappa peptide conjugates, conscious rat model; format: in vivo, Wistar rats; settings: ID, 100 μCi, potency corrected
Procedure: The tissue was weighed and a representative sample, (ca 0.1 g), was removed to a scintillation vial. The tissue was solubilzed with 1 ml of BTS-450 (an organic tissue solubliser). Ten ml of scintillation fluid was added and the radioactivity was measured. The radioactivity was expressed as dpm/initial weight of tissue.

[4] = Opioid peptide stability in SIF (pancreatin, pH 7.5, HPLC/LCMS); format: in vitro ADME
Procedure: Pancreatin (Fisher Scientific) was dissolved at 1 mg/ml in 1× phosphate buffer solution. The pH of the solution was adjusted to 7.5 with 0.01 M NaOH and it was heated in a waterbath to 37° C. Two dry peptide samples were weighed out. One sample was dissolved in phosphate buffer solution at 1.0 mg/ml as a control. The second sample was dissolved in SIF at 1.0 mg/ml for stability analysis. HPLC Analysis Conditions RP-HPLC analysis with C-18 short column (Betasil column, 5 μm (50×3 mm) PN: 055-701-3) with the following gradient: […]
Diode array detector on the system, 214 nm used for analysis
Solution in SIF injected at 0, 1, 3, and 24 hours
Analyzed control and 24 hour sample by LCMS.

[5] = biological target: T1, kappa receptor (Rattus norvegicus, UniProt P34975); test: Competition for binding of a radiolabelled kappa peptide to rat brain homogenates; settings: IC50, Day 82, first of triplicates
T1 construct: from tissue; host or cells: rat brain homogenate
Procedure: The integrity of the opioid peptide was evaluated post conjugation to assess suitability for inclusion in further studies. Opioid activity was assessed in vitro using a competition assay (competition for binding of a radiolabelled kappa peptide to rat brain homogenates).

[6] = Stability of MTLPs in simulated intestinal fluid pH 6.8 with pancreatin (HPLC recovery)
Procedure: MTLPs ZElan094 and ZElan207 (SEQ. ID NO: 2 and 60) were dissolved in water and mixed with simulated intestinal fluid pH 6.8 containing porcine derived pancreatin (SIF+Pancreatin) at 37° C. The mixtures were incubated for up to 60 minutes at 37° C., with aliquots taken at designated time points. The reaction was quenched with quenching solution after the relevant time points in order to halt the reaction between the SIF and ligand.
Approximately 1 mg of ligand was dissolved in 1 ml of water. This standard stock solution of ligand was used to prepare the solutions containing Ligand+SIF+Pancreatin. 50 μL of ligand solution was mixed with volumes of SIF+Pancreatin in separate eppendorfs, as follows:
At the appropriate time point the reaction between the ligand and SIF was stopped by pipetting 100 μL of the mixture into 500 μL of quenching solution (Acetonitrile:Water 30:70). 20 μL of the mixture was injected onto the HPLC system.
Control samples of ligand in water and in quenching solution were prepared to check for recovery of ligand in the absence of SIF+Pancreatin.

[7] = tested on: Caco-2 monolayers; test: Transport of dipeptide 14C-gly-sar across Caco-2 monolayers; format: cell-based, human; parameters: key to % inhibition 14C-gly-sar transport: NS: no significant difference between experimental (+MTLP) and control cells (−MTLP) in the transport of radiolabeled drug; settings: flux measured over 2 h
Procedure: The effect of the MTLPs ZElan094, ZElan178 and ZElan187 (SEQ ID NOS: 2, 7 and 16) and of the targeting peptide ZElan022 (U.S. patent application Ser. Nos. 09/079,819, 09/079,723 AND 09/079,678, AND PCT APPLICATION PCT/US98/10088, PUBLISHED AS WO 98/51325) on the transport of the dipeptide ^14C-gly-sar and of the reporter molecule ^3H-fMLP across Caco-2 monolayers was determined. The Caco-2 monolayers were grown on Transwell-Snapwells. Cell viability was determined by measuring TEER of the Caco-2 monolayers during each experiment. No significant drop in TEER was measured. Cell permeability was determined by measuring mannitol flux across the Caco-2 monolayers during each experiment. No increase in mannitol flux was measured in the presence of the MTLP ZElan094.
The flux of the dipeptide ^14C-gly-sar and of the reporter molecule ^3H-fMLP across the Caco-2 monolayers in the absence and in the presence of the MTLPs ZElan094, ZElan178 and ZElan187 (SEQ ID NOS: 2, 7 and 16) and of the targeting peptide ZElan022 (U.S. patent application Ser. Nos. 09/079,819, 09/079,723 AND 09/079,678), AND PCT APPLICATION PCT/US98/10088, PUBLISHED AS WO 98/51325 was measured over 2 h, and reduction in the permeability coefficient was determined in the presence of cold substrates.

CC[C@@H](C)[C@@H](NC(=O)[C@@H](Cc1ccccc1)NC(=O)[C@@H](Cc1ccccc1)NC(=O)[C@H](CCCCN)NC(=O)[C@@H]1CCCN1C(=O)[C@H](C)NC(=O)[C@H](C)NC(=O)[C@H](CC(C)C)NC(=O)[C@H](CC(C)C)NC(=O)[C@@H](NC(=O)[C@@H]1CCCN1C(=O)[C@H](CC(C)C)NC(=O)[C@H](CC(C)C)NC(=O)[C@@H](NC(=O)[C@H](C)NC(=O)[C@H](C)NC(=O)[C@H](C)NC(=O)[C@H](CCCCN)NC(=O)[C@@H](N)CCCCN)C(C)C)C(C)C)C(=O)N[C@H](CCCNC(=N)N)C(N)=O [3H-Kappa peptide-Elan094]
permeability compared to the kappa peptide control [1]: No significant increase
fold increase in absolute 3H bioavailability versus kappa peptide without ligand [2]: ~6 fold
3H AUClast ([2]; Elan207 = original group): 260642.53±35010.58 dpm/ml·h
3H Amax (maximum radioactivity) ([2]; Elan207 = original group): 158512.67±18907.79 dpm/ml
fold increase in absolute 3H bioavailability versus kappa peptide without ligand ([2]; listed as Elan094 MTLP): approximately 5.8 fold
bioavailability ([2]; rat, plasma, potency corrected, Elan207 = original group, read-out: Absolute 3H bioavailability): 46.5 ± 6.24%
Catheter, % of administered dose [3]: 0.20 ± 0.10%
GI Tissue, % of administered dose [3]: 11.61 ± 11.27%
GI Washing, % of administered dose [3]: 9.70 ± 5.24%
GI contents, % of administered dose [3]: 23.57 ± 21.57%
Liver, % of administered dose [3]: 0.37 ± 0.06%
Total GI (% recovery from GI tissue, GI contents & GI wash) [3]: 44.89 ± 19.94%
Kidney, % of administered dose ([3]; t=6 h): 0.12 ± 0.07%
Plasma, % of administered dose ([3]; t=6 h): 0.42±0.08%
Total Recovery, % of administered dose ([3]; t=6 h): 46.00 ± 19.91%

CC[C@@H](C)[C@@H](NC(=O)[C@@H](Cc1ccccc1)NC(=O)[C@H](N)Cc1ccccc1)C(=O)N[C@H](CCCNC(=N)N)C(N)=O [H-ffir-NH2]
stability in SIF ([4]; over the 24 hour period): very stable
remaining at 1 h, 1 mg/ml ([4]; simulated intestinal fluid (SIF) with pancreatin, pH 7.5, SIF, 37° C., 1 hr, read-out: % Compound): 105%
remaining at 24 h, 1 mg/ml ([4]; simulated intestinal fluid (SIF) with pancreatin, pH 7.5, SIF, 37° C., 24 hr, read-out: % Compound): 101%
IC50 [5]: 4 nM

CC(C)C[C@@H](NC(=O)[C@@H](CC(C)C)NC(=O)[C@H](NC(=O)[C@H]1CCCN1C(=O)[C@@H](CC(C)C)NC(=O)[C@@H](CC(C)C)NC(=O)[C@H](NC(=O)[C@@H](C)NC(=O)[C@@H](C)NC(=O)[C@@H](C)NC(=O)[C@@H](CCCCN)NC(=O)[C@@H](CCCCN)NC(=O)[C@H](N)CCCCNS(=O)(=O)c1cccc2c(N(C)C)cccc12)C(C)C)C(C)C)C(=O)N[C@H](C)C(=O)N[C@H](C)C(=O)N1CCC[C@@H]1C(N)=O [ZElan207]
recovery ([6]; % Recovery, control without SIF: Pep + H2O (100 ul) + H2O, 60 min): 101%
recovery ([6]; % Recovery, control without SIF: Pep + H2O (100 ul) + quenching solution, 60 min): 101%
recovery ([6]; pH 6.8, % Recovery, Peptide + 100 uL SIF pH 6.8, 37 C, 5 min): 96.6%
recovery ([6]; pH 6.8, % Recovery, Peptide + 100 uL SIF pH 6.8, 37 C, 10 min): 97.4%
recovery ([6]; pH 6.8, % Recovery, Peptide + 100 uL SIF pH 6.8, 37 C, 30 min): 87.8%
recovery ([6]; pH 6.8, % Recovery, Peptide + 100 uL SIF pH 6.8, 37 C, 60 min): 97.7%
recovery ([6]; pH 6.8, % Recovery, Peptide + 200 uL SIF pH 6.8, 37 C, 5 min): 99%
recovery ([6]; pH 6.8, % Recovery, Peptide + 200 uL SIF pH 6.8, 37 C, 10 min): 96.3%
recovery ([6]; pH 6.8, % Recovery, Peptide + 200 uL SIF pH 6.8, 37 C, 30 min): 92.8%
recovery ([6]; pH 6.8, % Recovery, Peptide + 200 uL SIF pH 6.8, 37 C, 60 min): 96.5%

H-K(ε-dansyl)KKAAVLLPVLLA-NH2 ({K(ε-dansyl)}-KKAAVLLPVLLA-NH2) [ZElan187]
% inhibition 14C-gly-sar transport [7]: NS
inhibition of 14C-gly-sar transport [7]: did not inhibit transport

H-K(ε-dansyl)KKCAAVLLPVLLAC-NH2 ({K(ε-dansyl)}-KKCAAVLLPVLLAC-NH2; not fully specified; printed as H-K(ε-dansyl)KKCAAVLLPVLLAC-NH2; also: cyclic internal, bridge kind and places not given here) [ZElan178]
% inhibition 14C-gly-sar transport [7]: NS
inhibition of 14C-gly-sar transport [7]: did not inhibit transport
